The NIST ThermoML archive (doi:10.1021/je8000975)
Where “and” joins values, the source holds several entries; their conditions need not be identical. Identical values can stand only once. ± gives the expanded uncertainty stated by the source.

Columns and labels:
[1] = Liquid; for speed of sound: Sing-around technique in a fixed-path interferometer
[2] = xn = mol fraction of the nth substance listed; details: 101 kPa, Liquid

COCCOCCO [2-(2-methoxyethoxy)ethanol]
mass density ([1]; 293.15 K): 1019.81 ± 1.3 kg/m3
speed of sound ([1]; 293.15 K): 1432.4 ± 2.1 m/s
mass density ([1]; 298.15 K): 1015.41 ± 1.3 kg/m3
speed of sound ([1]; 298.15 K): 1415.2 ± 2.1 m/s
mass density ([1]; 303.15 K): 1010.91 ± 1.2 kg/m3
speed of sound ([1]; 303.15 K): 1397.9 ± 2.1 m/s

CCOCCO [2-ethoxyethan-1-ol] + COCCO
mass density ([2]; 293.15 K, x2 = 0.1511): 933.958 ± 0.32 kg/m3
mass density ([2]; 293.15 K, x2 = 0.2029): 935.531 ± 0.32 kg/m3
mass density ([2]; 293.15 K, x2 = 0.3043): 938.709 ± 0.31 kg/m3
mass density ([2]; 293.15 K, x2 = 0.3503): 940.193 ± 0.31 kg/m3
mass density ([2]; 293.15 K, x2 = 0.5024): 945.313 ± 0.31 kg/m3
mass density ([2]; 293.15 K, x2 = 0.5514): 947.031 ± 0.3 kg/m3
mass density ([2]; 293.15 K, x2 = 0.6992): 952.448 ± 0.3 kg/m3
mass density ([2]; 293.15 K, x2 = 0.7482): 954.326 ± 0.3 kg/m3
mass density ([2]; 293.15 K, x2 = 0.798): 956.272 ± 0.29 kg/m3
mass density ([2]; 293.15 K, x2 = 0.7992): 956.321 ± 0.29 kg/m3
mass density ([2]; 293.15 K, x2 = 0.8504): 958.373 ± 0.29 kg/m3
mass density ([2]; 293.15 K, x2 = 0.8997): 960.393 ± 0.29 kg/m3
mass density ([2]; 293.15 K, x2 = 0.9488): 962.456 ± 0.29 kg/m3
mass density ([2]; 298.15 K, x2 = 0.0536): 926.563 ± 0.33 kg/m3
mass density ([2]; 298.15 K, x2 = 0.1039): 928.032 ± 0.32 kg/m3
mass density ([2]; 298.15 K, x2 = 0.151): 929.431 ± 0.32 kg/m3
mass density ([2]; 298.15 K, x2 = 0.1517): 929.455 ± 0.32 kg/m3
mass density ([2]; 298.15 K, x2 = 0.3523): 935.724 ± 0.32 kg/m3
mass density ([2]; 298.15 K, x2 = 0.3757): 936.488 ± 0.32 kg/m3
mass density ([2]; 298.15 K, x2 = 0.4166): 937.846 ± 0.31 kg/m3
mass density ([2]; 298.15 K, x2 = 0.4509): 939.002 ± 0.31 kg/m3
mass density ([2]; 298.15 K, x2 = 0.5507): 942.46 ± 0.31 kg/m3
mass density ([2]; 298.15 K, x2 = 0.5981): 944.155 ± 0.31 kg/m3
mass density ([2]; 298.15 K, x2 = 0.7494): 949.818 ± 0.3 kg/m3
mass density ([2]; 298.15 K, x2 = 0.7987): 951.747 ± 0.3 kg/m3
mass density ([2]; 298.15 K, x2 = 0.8423): 953.488 ± 0.3 kg/m3
mass density ([2]; 298.15 K, x2 = 0.8475): 953.698 ± 0.3 kg/m3
mass density ([2]; 298.15 K, x2 = 0.9002): 955.855 ± 0.3 kg/m3
mass density ([2]; 298.15 K, x2 = 0.9483): 957.869 ± 0.29 kg/m3
mass density ([2]; 303.15 K, x2 = 0.1537): 924.945 ± 0.33 kg/m3
mass density ([2]; 303.15 K, x2 = 0.1543): 924.961 ± 0.33 kg/m3
mass density ([2]; 303.15 K, x2 = 0.2017): 926.398 ± 0.33 kg/m3
mass density ([2]; 303.15 K, x2 = 0.2495): 927.868 ± 0.32 kg/m3
mass density ([2]; 303.15 K, x2 = 0.3013): 929.498 ± 0.32 kg/m3
mass density ([2]; 303.15 K, x2 = 0.402): 932.768 ± 0.32 kg/m3
mass density ([2]; 303.15 K, x2 = 0.4505): 934.39 ± 0.32 kg/m3
mass density ([2]; 303.15 K, x2 = 0.4985): 936.037 ± 0.32 kg/m3
mass density ([2]; 303.15 K, x2 = 0.5505): 937.856 ± 0.31 kg/m3
mass density ([2]; 303.15 K, x2 = 0.5979): 939.553 ± 0.31 kg/m3
mass density ([2]; 303.15 K, x2 = 0.6504): 941.473 ± 0.31 kg/m3
mass density ([2]; 303.15 K, x2 = 0.6979): 943.248 ± 0.31 kg/m3
mass density ([2]; 303.15 K, x2 = 0.7488): 945.193 ± 0.31 kg/m3
mass density ([2]; 303.15 K, x2 = 0.7998): 947.188 ± 0.3 kg/m3
mass density ([2]; 303.15 K, x2 = 0.9001): 951.244 ± 0.3 kg/m3

CCCOCCO [2-propoxyethanol] + CCCCOCCCC
mass density ([2]; 293.15 K, x1 = 0.0625): 774.485 ± 0.51 kg/m3
mass density ([2]; 293.15 K, x1 = 0.1231): 780.612 ± 0.51 kg/m3
mass density ([2]; 293.15 K, x1 = 0.1827): 786.927 ± 0.5 kg/m3
mass density ([2]; 293.15 K, x1 = 0.2394): 793.199 ± 0.5 kg/m3
mass density ([2]; 293.15 K, x1 = 0.2492): 794.319 ± 0.49 kg/m3
mass density ([2]; 293.15 K, x1 = 0.2944): 799.55 ± 0.49 kg/m3
mass density ([2]; 293.15 K, x1 = 0.2949): 799.613 ± 0.49 kg/m3
mass density ([2]; 293.15 K, x1 = 0.3486): 806.069 ± 0.49 kg/m3
mass density ([2]; 293.15 K, x1 = 0.4023): 812.805 ± 0.48 kg/m3
mass density ([2]; 293.15 K, x1 = 0.4544): 819.603 ± 0.48 kg/m3
mass density ([2]; 293.15 K, x1 = 0.4567): 819.921 ± 0.48 kg/m3
mass density ([2]; 293.15 K, x1 = 0.5556): 833.65 ± 0.47 kg/m3
mass density ([2]; 293.15 K, x1 = 0.599): 840.02 ± 0.47 kg/m3
mass density ([2]; 293.15 K, x1 = 0.6019): 840.448 ± 0.47 kg/m3
mass density ([2]; 293.15 K, x1 = 0.6498): 847.778 ± 0.47 kg/m3
mass density ([2]; 293.15 K, x1 = 0.6536): 848.363 ± 0.47 kg/m3
mass density ([2]; 293.15 K, x1 = 0.7431): 862.909 ± 0.46 kg/m3
mass density ([2]; 293.15 K, x1 = 0.8304): 878.188 ± 0.45 kg/m3
mass density ([2]; 293.15 K, x1 = 0.8329): 878.643 ± 0.45 kg/m3
mass density ([2]; 293.15 K, x1 = 0.875): 886.46 ± 0.45 kg/m3
mass density ([2]; 293.15 K, x1 = 0.9173): 894.637 ± 0.45 kg/m3
mass density ([2]; 293.15 K, x1 = 0.9567): 902.506 ± 0.44 kg/m3
mass density ([2]; 293.15 K, x1 = 0.9568): 902.528 ± 0.44 kg/m3
mass density ([2]; 298.15 K, x1 = 0.0551): 769.407 ± 0.52 kg/m3
mass density ([2]; 298.15 K, x1 = 0.0626): 770.132 ± 0.52 kg/m3
mass density ([2]; 298.15 K, x1 = 0.1039): 774.248 ± 0.51 kg/m3
mass density ([2]; 298.15 K, x1 = 0.1246): 776.381 ± 0.51 kg/m3
mass density ([2]; 298.15 K, x1 = 0.1556): 779.622 ± 0.51 kg/m3
mass density ([2]; 298.15 K, x1 = 0.2367): 788.484 ± 0.5 kg/m3
mass density ([2]; 298.15 K, x1 = 0.2393): 788.779 ± 0.5 kg/m3
mass density ([2]; 298.15 K, x1 = 0.2922): 794.872 ± 0.5 kg/m3
mass density ([2]; 298.15 K, x1 = 0.3545): 802.367 ± 0.49 kg/m3
mass density ([2]; 298.15 K, x1 = 0.4014): 808.252 ± 0.49 kg/m3
mass density ([2]; 298.15 K, x1 = 0.4031): 808.491 ± 0.49 kg/m3
mass density ([2]; 298.15 K, x1 = 0.455): 815.247 ± 0.48 kg/m3
mass density ([2]; 298.15 K, x1 = 0.5006): 821.438 ± 0.48 kg/m3
mass density ([2]; 298.15 K, x1 = 0.5043): 821.944 ± 0.48 kg/m3
mass density ([2]; 298.15 K, x1 = 0.5521): 828.692 ± 0.48 kg/m3
mass density ([2]; 298.15 K, x1 = 0.6483): 843.112 ± 0.47 kg/m3
mass density ([2]; 298.15 K, x1 = 0.6976): 850.944 ± 0.47 kg/m3
mass density ([2]; 298.15 K, x1 = 0.6984): 851.074 ± 0.47 kg/m3
mass density ([2]; 298.15 K, x1 = 0.6993): 851.218 ± 0.47 kg/m3
mass density ([2]; 298.15 K, x1 = 0.7502): 859.679 ± 0.46 kg/m3
mass density ([2]; 298.15 K, x1 = 0.7902): 866.584 ± 0.46 kg/m3
mass density ([2]; 298.15 K, x1 = 0.8325): 874.153 ± 0.46 kg/m3 and 874.166 ± 0.46 kg/m3
mass density ([2]; 298.15 K, x1 = 0.9152): 889.815 ± 0.45 kg/m3
mass density ([2]; 298.15 K, x1 = 0.9163): 890.027 ± 0.45 kg/m3
mass density ([2]; 298.15 K, x1 = 0.9571): 898.214 ± 0.45 kg/m3
mass density ([2]; 298.15 K, x1 = 0.9581): 898.407 ± 0.45 kg/m3
mass density ([2]; 303.15 K, x1 = 0.0645): 765.959 ± 0.52 kg/m3
mass density ([2]; 303.15 K, x1 = 0.1249): 772.015 ± 0.52 kg/m3
mass density ([2]; 303.15 K, x1 = 0.1826): 778.083 ± 0.51 kg/m3
mass density ([2]; 303.15 K, x1 = 0.2383): 784.22 ± 0.51 kg/m3 and 784.216 ± 0.51 kg/m3
mass density ([2]; 303.15 K, x1 = 0.3481): 797.121 ± 0.5 kg/m3
mass density ([2]; 303.15 K, x1 = 0.4032): 804.021 ± 0.49 kg/m3
mass density ([2]; 303.15 K, x1 = 0.4542): 810.67 ± 0.49 kg/m3
mass density ([2]; 303.15 K, x1 = 0.4567): 810.994 ± 0.49 kg/m3
mass density ([2]; 303.15 K, x1 = 0.5058): 817.67 ± 0.49 kg/m3
mass density ([2]; 303.15 K, x1 = 0.5547): 824.595 ± 0.48 kg/m3
mass density ([2]; 303.15 K, x1 = 0.5548): 824.612 ± 0.48 kg/m3
mass density ([2]; 303.15 K, x1 = 0.5997): 831.213 ± 0.48 kg/m3
mass density ([2]; 303.15 K, x1 = 0.6542): 839.567 ± 0.47 kg/m3
mass density ([2]; 303.15 K, x1 = 0.6988): 846.673 ± 0.47 kg/m3
mass density ([2]; 303.15 K, x1 = 0.7434): 854.06 ± 0.47 kg/m3
mass density ([2]; 303.15 K, x1 = 0.7899): 862.072 ± 0.46 kg/m3
mass density ([2]; 303.15 K, x1 = 0.8319): 869.613 ± 0.46 kg/m3
mass density ([2]; 303.15 K, x1 = 0.8764): 877.879 ± 0.46 kg/m3
mass density ([2]; 303.15 K, x1 = 0.9168): 885.687 ± 0.46 kg/m3 and 885.692 ± 0.46 kg/m3
mass density ([2]; 303.15 K, x1 = 0.9553): 893.42 ± 0.45 kg/m3
mass density ([2]; 303.15 K, x1 = 0.9575): 893.858 ± 0.45 kg/m3
